# Counter-ions that a name gives are not always drawn.
# Assays:
# Cytochrome P450 2D6 = Cytochrome P450 2D6 (Homo sapiens, UniProt P10635); test: Inhibition of recombinant human CYP2D6 expressed in bacterial membranes using AMMC as substrate preincubated for 10 mins followed by NADPH addition measured after 30 mins by fluorescence assay; format: ADME, cell membranes
# [1] = target: T1, Extracellular calcium-sensing receptor (Homo sapiens, UniProt P41180); test: Agonist activity at human CaSR expressed in CHO cells assessed as increase in intracellular calcium mobilization after 1 hr by Fura-2 dye-based fluorescence assay; format: functional, cell-based
# T1 sequence (P41180 whole entry): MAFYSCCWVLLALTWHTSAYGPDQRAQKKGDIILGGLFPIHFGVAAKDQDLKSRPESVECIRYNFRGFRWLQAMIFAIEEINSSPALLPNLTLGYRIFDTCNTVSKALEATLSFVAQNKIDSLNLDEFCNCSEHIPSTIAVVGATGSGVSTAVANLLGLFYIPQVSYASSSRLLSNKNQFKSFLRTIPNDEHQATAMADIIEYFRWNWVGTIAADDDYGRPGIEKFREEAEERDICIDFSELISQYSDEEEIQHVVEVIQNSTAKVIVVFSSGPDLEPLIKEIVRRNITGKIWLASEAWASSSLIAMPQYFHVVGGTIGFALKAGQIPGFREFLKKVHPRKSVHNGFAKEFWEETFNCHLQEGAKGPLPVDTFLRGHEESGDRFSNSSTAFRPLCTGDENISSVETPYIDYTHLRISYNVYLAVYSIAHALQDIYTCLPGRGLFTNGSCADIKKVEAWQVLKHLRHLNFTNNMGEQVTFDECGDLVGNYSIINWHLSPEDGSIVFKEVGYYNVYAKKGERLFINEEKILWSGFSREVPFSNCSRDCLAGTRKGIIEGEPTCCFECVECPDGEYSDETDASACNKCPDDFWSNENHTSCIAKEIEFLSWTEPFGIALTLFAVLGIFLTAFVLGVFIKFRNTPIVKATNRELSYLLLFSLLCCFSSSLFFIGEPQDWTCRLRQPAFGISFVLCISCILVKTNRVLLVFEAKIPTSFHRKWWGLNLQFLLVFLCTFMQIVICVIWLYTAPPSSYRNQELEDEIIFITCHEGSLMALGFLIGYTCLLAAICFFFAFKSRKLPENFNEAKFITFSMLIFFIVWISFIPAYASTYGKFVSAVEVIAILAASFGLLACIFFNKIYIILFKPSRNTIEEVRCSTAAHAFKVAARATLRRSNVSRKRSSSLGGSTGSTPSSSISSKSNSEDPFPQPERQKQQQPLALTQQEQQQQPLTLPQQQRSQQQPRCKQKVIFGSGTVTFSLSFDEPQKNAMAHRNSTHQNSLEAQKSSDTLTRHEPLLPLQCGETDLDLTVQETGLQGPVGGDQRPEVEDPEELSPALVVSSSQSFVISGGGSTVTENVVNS
# CYP2D6 [2] = target: T2, CYP2D6 (Homo sapiens, UniProt P10635); test: Inhibition of CYP2D6 (unknown origin) at 1 uM relative to control; format: ADME
# T2 sequence (P10635 whole entry): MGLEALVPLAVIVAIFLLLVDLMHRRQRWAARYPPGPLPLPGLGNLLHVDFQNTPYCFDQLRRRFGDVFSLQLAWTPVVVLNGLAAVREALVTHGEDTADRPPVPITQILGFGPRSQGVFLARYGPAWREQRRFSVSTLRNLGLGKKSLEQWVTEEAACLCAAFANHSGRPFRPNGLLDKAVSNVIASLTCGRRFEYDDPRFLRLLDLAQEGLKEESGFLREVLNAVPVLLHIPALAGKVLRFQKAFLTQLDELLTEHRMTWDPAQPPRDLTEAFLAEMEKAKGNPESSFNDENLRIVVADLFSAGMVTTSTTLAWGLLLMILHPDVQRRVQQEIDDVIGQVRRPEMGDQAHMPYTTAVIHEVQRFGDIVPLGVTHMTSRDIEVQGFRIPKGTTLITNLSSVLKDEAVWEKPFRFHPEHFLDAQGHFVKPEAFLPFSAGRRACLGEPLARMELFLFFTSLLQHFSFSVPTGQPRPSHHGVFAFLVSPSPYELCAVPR
# CYP2D6 [3] = target: T2, CYP2D6; test: Inhibition of CYP2D6 (unknown origin) at 0.1 uM relative to control; format: ADME
# CYP2D6 [4] = target: T2, CYP2D6; test: Inhibition of CYP2D6 (unknown origin) at 10 uM relative to control; format: ADME
# [5] = Intrinsic clearance in rat liver microsomes assessed per protein; format: ADME, microsome; settings: read-out: CLH
# [6] = target: T3, Extracellular calcium-sensing receptor (Rattus norvegicus, UniProt P48442); test: Agonist activity at CaSR in rat parathyroid cells assessed as inhibition of PTH (1 to 84 residues) production in presence of Cacl2 by ELISA; format: functional, cell-based
# T3 sequence (P48442 whole entry): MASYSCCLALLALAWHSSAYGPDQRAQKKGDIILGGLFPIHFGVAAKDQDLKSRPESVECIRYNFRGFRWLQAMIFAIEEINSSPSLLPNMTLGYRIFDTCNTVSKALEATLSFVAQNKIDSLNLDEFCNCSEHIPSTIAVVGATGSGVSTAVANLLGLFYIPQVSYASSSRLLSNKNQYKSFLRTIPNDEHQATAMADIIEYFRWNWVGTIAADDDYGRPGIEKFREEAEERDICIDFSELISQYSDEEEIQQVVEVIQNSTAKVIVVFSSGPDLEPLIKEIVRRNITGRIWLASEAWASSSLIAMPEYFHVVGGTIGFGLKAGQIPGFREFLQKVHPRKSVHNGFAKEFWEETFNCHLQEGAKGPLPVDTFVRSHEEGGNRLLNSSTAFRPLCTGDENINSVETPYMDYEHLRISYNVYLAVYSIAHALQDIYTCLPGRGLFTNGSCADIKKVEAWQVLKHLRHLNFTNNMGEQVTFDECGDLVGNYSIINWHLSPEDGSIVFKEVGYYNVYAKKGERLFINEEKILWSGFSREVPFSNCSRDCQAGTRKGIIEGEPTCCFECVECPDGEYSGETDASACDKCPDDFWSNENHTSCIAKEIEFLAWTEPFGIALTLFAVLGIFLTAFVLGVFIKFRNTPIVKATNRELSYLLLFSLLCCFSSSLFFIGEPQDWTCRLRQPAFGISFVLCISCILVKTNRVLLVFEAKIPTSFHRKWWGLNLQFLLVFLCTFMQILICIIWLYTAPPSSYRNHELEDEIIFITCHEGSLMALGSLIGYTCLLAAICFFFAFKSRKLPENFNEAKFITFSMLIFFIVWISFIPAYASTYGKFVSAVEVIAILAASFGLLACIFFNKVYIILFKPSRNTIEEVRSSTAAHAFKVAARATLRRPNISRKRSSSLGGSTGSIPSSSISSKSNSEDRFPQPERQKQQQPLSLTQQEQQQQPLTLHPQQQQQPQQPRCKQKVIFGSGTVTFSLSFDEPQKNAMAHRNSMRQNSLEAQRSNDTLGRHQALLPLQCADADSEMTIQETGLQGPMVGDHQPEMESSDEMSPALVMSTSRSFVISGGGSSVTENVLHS
# [7] = Intrinsic clearance in human liver microsomes assessed per protein; format: ADME, microsome; settings: read-out: CLH
# Chain of Cytochrome P450 2D6 (P10635 whole entry): as the sequence (P10635 whole entry) above
IC50 (Cytochrome P450 2D6) [nM],EC50 [1] [nM],inhibition at 1 µM (CYP2D6 [2]) [%],inhibition at 0.1 µM (CYP2D6 [3]) [%],inhibition at 10 µM (CYP2D6 [4]) [%],microsomal CLint [5] [µL/min/mg],IC50 [6] [nM],microsomal CLint [7] [µL/min/mg],Compound
< 100,180,–,–,–,–,–,–,C[C@@H](NCCCc1cccc(C(F)(F)F)c1)c1cccc2ccccc12 [CINACALCET HYDROCHLORIDE]
–,50,3.4,4.4,30.7,667,0.91,197,C[C@@H](N[C@H]1CCN(c2ccc(C(=O)NCCO)cc2)C1)c1cccc2ccccc12
–,17,–,–,75.3,42,0.47,312,C[C@@H](N[C@H]1CCN(c2ccc(-c3nn[nH]n3)cc2)C1)c1cccc2ccccc12
–,600,86.4,79,92.5,442,31.8,225,C[C@@H](N[C@H]1CCCN(c2cccc(OC(F)(F)F)c2)C1)c1cccc2ccccc12
–,380,78.7,54.8,87.6,610,2.1,662,C[C@@H](N[C@@H]1CCCN(c2cccc(C(F)(F)F)c2)C1)c1cccc2ccccc12
–,600,88.4,85.9,–,176,11.7,84,C[C@@H](N[C@H]1CCN(c2cccc(OC(F)(F)F)c2)C1)c1cccc2ccccc12
–,450,87.5,85.1,–,370,13.1,171,C[C@@H](N[C@H]1CCN(c2cccc(C(F)(F)F)c2)C1)c1cccc2ccccc12
–,430,60,3,–,302,9.7,421,C[C@@H](N[C@@H]1CCN(c2cccc(C(F)(F)F)c2)C1)c1cccc2ccccc12
–,8800,–,–,–,–,–,–,C[C@@H](N[C@@H]1CCN(c2ccc(C(=O)O)cc2)C1)c1cccc2ccccc12
–,1100,–,–,–,–,> 100,–,C[C@@H](N[C@H]1CCCN(c2ccc(C(=O)O)cc2)C1)c1cccc2ccccc12
–,190,82.6,54,85.2,231,1.4,370,C[C@@H](N[C@@H]1CCCN(c2cccc(OC(F)(F)F)c2)C1)c1cccc2ccccc12
–,120,62.5,15.8,79.8,–,7.8,–,C[C@@H](N[C@H]1CCN(c2ccc(OC(F)(F)F)cc2)C1)c1cccc2ccccc12
–,320,61.2,15.8,–,270,4.3,206,C[C@@H](N[C@@H]1CCN(c2cccc(OC(F)(F)F)c2)C1)c1cccc2ccccc12
–,–,14.1,0,14.1,92,8,97,C[C@@H](N[C@H]1CCN(c2ccc(C(=O)O)cc2)C1)c1cccc2ccccc12
–,230,–,–,–,–,116,–,C[C@@H](N[C@@H]1CCN(c2ccc(OC(F)(F)F)cc2)C1)c1cccc2ccccc12

# Reference: ChEMBL document CHEMBL4118154, “Discovery of evocalcet, a next-generation calcium-sensing receptor agonist for the treatment of hyperparathyroidism” (Bioorg Med Chem Lett, 2018)
